Consider 44 molecules from US8546381B2, “Bridged heterocyclic compounds and methods of use” (Medivation Technologies, Inc., priority 2008, dated 2013).

The target of test [1] is T1, human recombinant histamine H2 receptor (Homo sapiens, UniProt P25021).
T1 construct: expressed in transfected cells; host or cells: CHO-K1 cells
The experiment in a line: Histamine H2 radioligand binding ([125I]Aminopotentidine). Particulars: compound at 1 μM, inhibition of specific [125I]Aminopotentidine binding; for inhibition at 1 µM: read-out: Histamine Binding (1 μM) H2, Percentage Inhibition. The method, then:
To evaluate in radioligand binding assays the activity of compounds of the invention, human recombinant histamine H2 receptor expressed in Chinese hamster ovary (CHO) K1 cells (Ruat, M., Proc. Natl. Acad. Sci. USA. 87(5):1658, 1990) in a 50 mM Phosphate buffer, pH 7.4 was used. Compounds of the invention were incubated with 0.1 nM [^125I]Aminopotentidine for 120 minutes at 25° C. Non-specific binding was estimated in the presence of 3 μM Tiotidine. Receptor proteins were filtered and washed, the filters were then counted to determine [^125I]Aminopotentidine specifically bound. Compounds were screened at 1 μM or lower, using 1% DMSO as vehicle. Biochemical assay results are presented as the percent inhibition of specific binding in Table 2.

For test [2], the target named is T2, human recombinant dopamine D2L receptor (Homo sapiens, UniProt P14416).
T2 construct: expressed in transfected cells; host or cells: CHO cells
T2 sequence (P14416 whole entry): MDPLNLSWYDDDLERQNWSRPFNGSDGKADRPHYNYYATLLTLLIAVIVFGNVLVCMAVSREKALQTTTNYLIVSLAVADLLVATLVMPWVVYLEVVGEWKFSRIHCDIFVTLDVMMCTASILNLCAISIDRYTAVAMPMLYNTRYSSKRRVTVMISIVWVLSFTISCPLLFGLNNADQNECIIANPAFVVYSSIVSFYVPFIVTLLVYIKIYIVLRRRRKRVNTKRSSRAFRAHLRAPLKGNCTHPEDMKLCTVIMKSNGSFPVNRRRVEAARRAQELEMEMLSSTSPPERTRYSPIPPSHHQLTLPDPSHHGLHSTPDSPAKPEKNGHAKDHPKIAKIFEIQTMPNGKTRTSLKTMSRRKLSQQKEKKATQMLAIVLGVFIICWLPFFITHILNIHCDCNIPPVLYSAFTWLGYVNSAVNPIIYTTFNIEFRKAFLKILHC
The experiment in a line: Dopamine D2L radioligand binding ([3H]Spiperone). The conditions noted are these: read-out: Dopamine (1 μM) D2L, inhibition of ligand binding. The method, then:
To evaluate in radioligand binding assays the activity of compounds of the invention, human recombinant dopamine D2L receptor expressed in Chinese hamster ovary (CHO) cells (Grandy, D. K. et al. Proc. Natl. Acad. Sci. USA. 86:9762, 1989; Hayes, G. et al., Mol. Endocrinol. 6:920, 1992) in a modified Tris-HCl buffer (50 mM Tris-HCl, pH 7.4, 1.4 mM Ascorbic Acid, 0.001% BSA, 150 mM NaCl) was used. Compounds of the invention were incubated with 0.16 nM [^3H]Spiperone for 120 minutes at 25° C. Non-specific binding was estimated in the presence of 10 μM Haloperidol. Receptor proteins were filtered and washed, the filters were then counted to determine [^3H]Spiperone specifically bound. Compounds were screened at 1 μM or lower, using 1% DMSO as vehicle. Biochemical assay results are presented as the percent inhibition of specific binding in Table 3.

T1 sequence (P25021 whole entry): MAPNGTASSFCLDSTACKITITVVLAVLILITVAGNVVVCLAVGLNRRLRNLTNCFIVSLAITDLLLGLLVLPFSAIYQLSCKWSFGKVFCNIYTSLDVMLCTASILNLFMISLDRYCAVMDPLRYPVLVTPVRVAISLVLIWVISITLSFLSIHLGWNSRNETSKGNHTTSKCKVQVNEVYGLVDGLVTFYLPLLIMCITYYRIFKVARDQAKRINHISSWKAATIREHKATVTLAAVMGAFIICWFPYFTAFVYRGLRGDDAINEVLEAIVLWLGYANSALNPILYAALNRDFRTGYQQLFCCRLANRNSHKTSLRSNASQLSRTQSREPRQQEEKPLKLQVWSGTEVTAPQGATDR

Turning to `CN1C2CCC1c1c(n(CCC#N)c3ccc(Cl)cc13)C2` (stereo not shown) [Compound 107], the inhibition (commonly the relative decrease from the control value, in per cent) at 1 µM in test [1] was -4%; in test [2] it was -5%.

With `CN1[C@@H]2CC[C@H]1c1c(n(CCc3ccc(C(F)(F)F)nc3)c3ccccc13)C2` [Compound 97], the figures for the inhibition at 1 µM in test [1] and in test [2] were 11% and -10%, respectively.

Turning to `Cc1ccc2c(c1)c1c(n2CC(C)(O)c2ccc(Cl)cc2)CC2CCC1N2C` (stereo not shown) [Compound 54], the inhibition at 1 µM in test [1] is 50%; in test [2] it was 14%.

For the molecule `C/C(=C/n1c2c(c3ccccc31)[C@@H]1CC[C@H](C2)N1C)c1ccc(F)cc1` [Compound 121], the values for the inhibition at 1 µM in test [1] and in test [2] were 21% and 19%, respectively.

`CN1C2CCC1c1c(n(CCCc3ccc(Cl)cc3)c3ccc(Cl)cc13)C2` (stereo not shown) [Compound 39]: the figures for the inhibition at 1 µM in test [1] and in test [2] were 86% and 2%, respectively.

As to `Cc1ncc(CCn2c3c(c4cc(Cl)ccc42)C2CCC(C3)N2C)cn1` (stereo not shown) [Compound 82], the inhibition at 1 µM in test [1] is -8%; in test [2] it was 2%.

Turning to `CN1C2CCC1c1c(n(CCC(=O)N3CCNCC3)c3ccc(Cl)cc13)C2` (stereo not shown) [Compound 9], the inhibition at 1 µM in test [1] turned out to be 3%; in test [2], 7%.

Consider `Cc1ccc(CCCn2c3c(c4cc(Cl)ccc42)C2CCC(C3)N2C)cn1` (stereo not shown) [Compound 38], for which the values for the inhibition at 1 µM in test [1] and in test [2] were 9% and -5%, respectively.

As to `Cc1ccc2c(c1)c1c(n2CCc2nc(-c3ccccc3)cs2)CC2CCC1N2C` (stereo not shown) [Compound 114], the inhibition at 1 µM stood at 10% in test [1] and 11% in test [2].

For the molecule `CN1[C@@H]2CC[C@H]1c1c(n(CC(=O)N3CCCCC3)c3ccccc13)C2` [Compound 101], the values for the inhibition at 1 µM in test [1] and in test [2] were 19% and 10%, respectively.

As for `CN1[C@@H]2CC[C@H]1c1c(n(CCc3ccc(F)cc3)c3ccc(F)cc13)C2` [Compound 94, (+)-(7S,10R)-2-Fluoro-5-(4-fluorophenethyl)-11-methyl-5,6,7,8,9,10-hexahydro-7,10-iminocyclohept[b]indole], the results for the inhibition at 1 µM in test [1] and in test [2] were 4% and 14%, respectively.

Turning to `Cc1ccc2c(c1)c1c(n2CCc2cncc(Cl)c2)CC2CCC1N2C` (stereo not shown) [Compound 88], the inhibition at 1 µM in test [1] is 5%; in test [2] it was 4%.

On to `CN1C2CCC1c1c(n(CCC(=O)N3CCNC(=O)C3)c3ccc(Cl)cc13)C2` (stereo not shown) [Compound 3], for which the inhibition at 1 µM is 2% in test [1] and -3% in test [2].

With `CN1[C@@H]2CC[C@H]1c1c(n(CC(C)(O)c3ccc(F)cc3)c3ccccc13)C2` (stereo partly shown) [Compound 99], the inhibition at 1 µM is 6% in test [1] and -6% in test [2].

Turning to `Cc1ccc2c(c1)c1c(n2CC(O)c2ccc(C)nc2)CC2CCC1N2C` (stereo not shown) [Compound 91], the inhibition at 1 µM in test [1] was 9%; in test [2], -5%.

In the case of `Cc1ccc(CCn2c3c(c4ccccc42)C2CCC(C3)N2C)cn1` (stereo not shown) [Compound 92], the inhibition at 1 µM is 11% in test [1] and 0% in test [2].

On to `Cc1ccc2c(c1)c1c(n2CCc2cccnc2)CC2CCC1N2C` (stereo not shown) [Compound 86], for which the results for the inhibition at 1 µM in test [1] and in test [2] were 26% and 4%, respectively.

`CC(=O)N1CCN(C(=O)CCn2c3c(c4cc(Cl)ccc42)C2CCC(C3)N2C)CC1` (stereo not shown) [Compound 8]: the inhibition at 1 µM in test [1] was determined as 9%; in test [2] it was 1%.

Consider `CN1C2CCC1c1c(n(CCC(N)=O)c3ccc(Cl)cc13)C2` (stereo not shown) [Compound 73], for which the inhibition at 1 µM in test [1] is -1%; in test [2] it was -4%.

Consider `Cc1cncc(CCn2c3c(c4cc(Cl)ccc42)C2CCC(C3)N2C)c1` (stereo not shown) [Compound 89], for which the inhibition at 1 µM in test [1] is -1%; in test [2] it was 9%.

For `COc1ccc(CCn2c3c(c4cc(C)ccc42)C2CCC(C3)N2C)cc1` (stereo not shown) [Compound 83], the inhibition at 1 µM was found to be 15% in test [1] and 12% in test [2].

For `CN1C2CCC1c1c(n(CCc3ccc(C(F)(F)F)nc3)c3cc(F)c(Cl)cc13)C2` (stereo not shown) [Compound 77], the inhibition at 1 µM in test [1] was determined as 7%; in test [2], 4%.

Consider `CN1C2CCC1c1c(n(CCc3cccnc3)c3ccc(Cl)cc13)C2` (stereo not shown) [Compound 80], for which the inhibition at 1 µM in test [1] and in test [2] was -3% throughout.

Consider `CN1C2CCC1c1c(n(CCC(=O)N3CCS(=O)(=O)CC3)c3ccc(Cl)cc13)C2` (stereo not shown) [Compound 11], for which the results for the inhibition at 1 µM in test [1] and in test [2] were 9% and 2%, respectively.

As to `Cc1ccc2c(c1)c1c(n2CCc2ccc(C)nc2)CC2CCC1N2C` (stereo not shown) [Compound 32], the inhibition at 1 µM was found to be 13% in test [1] and 10% in test [2].

For the molecule `Cc1ccc2c(c1)c1c(n2CC(=O)N2CCCCC2)CC2CCC1N2C` (stereo not shown) [Compound 93], the results for the inhibition at 1 µM in test [1] and in test [2] were -5% and -19%, respectively.

In the case of `Cc1ccc(CCn2c3c(c4ccccc42)[C@@H]2CC[C@H](C3)N2C)cn1` [Compound 102], the inhibition at 1 µM was 3% in test [1] and -1% in test [2].

For `CN1C2CCC1c1c(n(CCC(=O)O)c3ccc(Cl)cc13)C2` (stereo not shown) [Compound 72], the inhibition at 1 µM in test [1] is 7%; in test [2], 3%.

Regarding `Cc1ccc2c(c1)c1c(n2CCc2cnc(C)nc2)CC2CCC1N2C` (stereo not shown) [Compound 81], the inhibition at 1 µM in test [1] was -9%; in test [2], 9%.

In the case of `CN1C2CCC1c1c(n(CC(=O)c3ccccc3)c3ccc(Cl)cc13)C2` (stereo not shown) [Compound 110], the values for the inhibition at 1 µM in test [1] and in test [2] were 27% and 14%, respectively.

Consider `CN1C2CCC1c1c(n(CCCc3ccc(C(F)(F)F)nc3)c3ccc(Cl)cc13)C2` (stereo not shown) [Compound 37], for which the inhibition at 1 µM in test [1] turned out to be 7%; in test [2], 2%.

Consider `CCOC(=O)CCn1c2c(c3cc(Cl)ccc31)C1CCC(C2)N1C` (stereo not shown) [Compound 70, ethyl 3-(2-chloro-11-methyl-5,6,7,8,9,10-hexahydro-7,10-iminocyclohept[b]indol-5-yl)propanoate], for which the inhibition at 1 µM in test [1] was 7%; in test [2], -3%.

In the case of `Cc1ccc2c(c1)c1c(n2CCC#N)CC2CCC1N2C` (stereo not shown) [Compound 103], the inhibition at 1 µM in test [1] was 1%; in test [2], 4%.

With `CN1C2CCC1c1c(n(CCc3ccc(C(F)(F)F)nc3)c3ccc(Cl)cc13)C2` (stereo not shown) [Compound 34], the “Histamine Binding (1 μM) H2, Percentage Inhibition” value in test [1] (1 µM) stood at 24.0%. Moreover, the results for the inhibition at 1 µM in test [1] and in test [2] were 12% and -0.875%, respectively.

As for `CN1[C@H]2CC[C@@H]1c1c(n(CCc3ccc(F)cc3)c3ccc(F)cc13)C2` [Compound 95, (−)-(7R,10S)-2-Fluoro-5-(4-fluorophenethyl)-11-methyl-5,6,7,8,9,10-hexahydro-7,10-iminocyclohept[b]indole], the inhibition at 1 µM in test [1] was determined as 8%; in test [2], 50%.

For the molecule `CN1C2CCC1c1c(n(CCc3cncc(Cl)c3)c3ccc(Cl)cc13)C2` (stereo not shown) [Compound 87], the values for the inhibition at 1 µM in test [1] and in test [2] were 7% and -6%, respectively.

Take `COc1ccc(CCn2c3c(c4cc(Cl)ccc42)C2CCC(C3)N2C)cc1` (stereo not shown) [Compound 84]: the inhibition at 1 µM was 63% in test [1] and -6% in test [2].

As to `CN1C2CCC1c1c(n(CCC(=O)N3CCSCC3)c3ccc(Cl)cc13)C2` (stereo not shown) [Compound 12], the inhibition at 1 µM in test [1] is -2%; in test [2], -4%.

In the case of `Cc1ccc(CCn2c3c(c4cc(Cl)ccc42)C2CCC(C3)N2C)cn1` (stereo not shown) [Compound 79], the inhibition at 1 µM in test [1] was 1%; in test [2], 9%.

Turning to `Cc1ccc(C(O)Cn2c3c(c4cc(Cl)ccc42)C2CCC(C3)N2C)cn1` (stereo not shown) [Compound 52], the figures for the inhibition at 1 µM in test [1] and in test [2] were 2% and 10%, respectively.

As to `Cc1ccc2c(c1)c1c(n2CCCc2ccc(Cl)cc2)CC2CCC1N2C` (stereo not shown) [Compound 85], the figures for the inhibition at 1 µM in test [1] and in test [2] were 81% and -2%, respectively.

For `Cc1cncc(CCn2c3c(c4cc(C)ccc42)C2CCC(C3)N2C)c1` (stereo not shown) [Compound 90], the inhibition at 1 µM in test [1] was -1%; in test [2] it was -4%.

`CN1C2CCC1c1c(n(CCC(=O)N3CC[S+]([O-])CC3)c3ccc(Cl)cc13)C2` (stereo not shown) [Compound 10]: the inhibition at 1 µM in test [1] was 1%; in test [2], -2%.

As to `Cc1ccc2c(c1)c1c(n2CCc2ccc(C(F)(F)F)nc2)CC2CCC1N2C` (stereo not shown) [Compound 71], in test [2], the inhibition at 1 µM was -2%.
